From ChEMBL document CHEMBL3112491, “3-(5-)-Amino-o-diarylisoxazoles: regioselective synthesis and antitubulin activity” (2014)

Key:
Type in all cases: functional
[1] = Growth inhibition of human RXF393 cells after 48 hrs by sulforhodamine B assay; details: RXF 393, 48 h
[2] = tested on: CCRF-CEM; assay: Growth inhibition of human CCRF-CEM cells after 48 hrs by sulforhodamine B assay
[3] = tested on: MCF7; assay: Growth inhibition of human MCF7 cells after 48 hrs by sulforhodamine B assay; details: MCF7, 48 h
[4] = tested on: NCI-H522; assay: Growth inhibition of human NCI-H522 cells after 48 hrs by sulforhodamine B assay; details: NCI-H522, 48 h
[5] = tested on: SK-MEL-5; assay: Growth inhibition of human SK-MEL-5 cells after 48 hrs by sulforhodamine B assay; details: SK-MEL-5, 48 h
[6] = tested on: SF-295; assay: Growth inhibition of human SF295 cells after 48 hrs by sulforhodamine B assay; details: SF-295, 48 h
[7] = tested on: HOP-62; assay: Growth inhibition of human HOP62 cells after 48 hrs by sulforhodamine B assay; details: HOP-62, 48 h
[8] = tested on: SK-OV-3; assay: Growth inhibition of human SKOV3 cells after 48 hrs by sulforhodamine B assay; details: SK-OV-3, 48 h
[9] = tested on: NCI-H23; assay: Growth inhibition of human NCI-H23 cells after 48 hrs by sulforhodamine B assay; details: NCI-H23, 48 h
[10] = Growth inhibition of human OVCAR4 cells after 48 hrs by sulforhodamine B assay; details: OVCAR-4, 48 h
[11] = tested on: SK-MEL-2; assay: Growth inhibition of human SK-MEL-2 cells after 48 hrs by sulforhodamine B assay; details: SK-MEL-2, 48 h
[12] = tested on: Malme-3M; assay: Growth inhibition of human MALME-3M cells after 48 hrs by sulforhodamine B assay
[13] = Growth inhibition of human HOP92 cells after 48 hrs by sulforhodamine B assay; details: HOP-92, 48 h
[14] = tested on: SF-268; assay: Growth inhibition of human SF268 cells after 48 hrs by sulforhodamine B assay; details: SF-268, 48 h
[15] = tested on: RPMI-8226; assay: Growth inhibition of human RPMI8226 cells after 48 hrs by sulforhodamine B assay; details: RPMI-8226, 48 h
[16] = tested on: CAKI-1; assay: Growth inhibition of human CAKI-1 cells after 48 hrs by sulforhodamine B assay; details: CAKI-1, 48 h
[17] = tested on: SNB-19; assay: Growth inhibition of human SNB19 cells after 48 hrs by sulforhodamine B assay; details: SNB-19, 48 h
[18] = tested on: MOLT-4; assay: Growth inhibition of human MOLT4 cells after 48 hrs by sulforhodamine B assay; details: MOLT-4, 48 h
[19] = tested on: BT-549; assay: Growth inhibition of human BT549 cells after 48 hrs by sulforhodamine B assay; details: BT-549, 48 h
[20] = tested on: SR; assay: Growth inhibition of human SR cells after 48 hrs by sulforhodamine B assay
[21] = Growth inhibition of human NCI-ADR-RES cells after 48 hrs by sulforhodamine B assay
[22] = Growth inhibition of human SF539 cells after 48 hrs by sulforhodamine B assay; details: SF-539, 48 h
[23] = tested on: HCT-15; assay: Growth inhibition of human HCT15 cells after 48 hrs by sulforhodamine B assay; details: HCT-15, 48 h
[24] = tested on: SK-MEL-28; assay: Growth inhibition of human SK-MEL-28 cells after 48 hrs by sulforhodamine B assay; details: SK-MEL-28, 48 h
[25] = tested on: U-251; assay: Growth inhibition of human U251 cells after 48 hrs by sulforhodamine B assay; details: U-251, 48 h
[26] = tested on: Paracentrotus lividus; assay: Antimitotic activity in sea urchin fertilized egg assessed as cleavage alteration treated at 8 to 20 mins post-fertilization measured at 2.5 to 5.5 hrs post-fertilization
[27] = tested on: A549; assay: Growth inhibition of human A549/ATCC cells after 48 hrs by sulforhodamine B assay; details: A549, 48 h
[28] = tested on: COLO 205; assay: Growth inhibition of human COLO205 cells after 48 hrs by sulforhodamine B assay; details: COLO 205, 48 h
[29] = tested on: HCT-116; assay: Growth inhibition of human HCT116 cells after 48 hrs by sulforhodamine B assay; details: HCT-116, 48 h
[30] = tested on: T47D; assay: Growth inhibition of human T47D cells after 48 hrs by sulforhodamine B assay
[31] = tested on: Paracentrotus lividus; assay: Microtubule destabilizing activity in sea urchin free-swimming blastula assessed as embryo spinning treated at 9 to 10 hrs post-fertilization measured after 0.15 to 15 hrs
[32] = tested on: TK-10; assay: Growth inhibition of human TK10 cells after 48 hrs by sulforhodamine B assay; details: TK-10, 48 h
[33] = Growth inhibition of human OVCAR5 cells after 48 hrs by sulforhodamine B assay; details: OVCAR-5, 48 h
[34] = tested on: OVCAR-8; assay: Growth inhibition of human OVCAR8 cells after 48 hrs by sulforhodamine B assay; details: OVCAR-8, 48 h
[35] = Growth inhibition of human UO31 cells after 48 hrs by sulforhodamine B assay; details: UO-31, 48 h
[36] = Growth inhibition of human Hs 578T cells after 48 hrs by sulforhodamine B assay
[37] = tested on: MDA-MB-468; assay: Growth inhibition of human MDA-MB-468 cells after 48 hrs by sulforhodamine B assay; details: MDA-MB-468, 48 h
[38] = tested on: ACHN; assay: Growth inhibition of human ACHN cells after 48 hrs by sulforhodamine B assay
[39] = tested on: 786-0; assay: Growth inhibition of human 786-0 cells after 48 hrs by sulforhodamine B assay; details: 786-0, 48 h
[40] = tested on: LOX IMVI; assay: Growth inhibition of human LOXIMVI cells after 48 hrs by sulforhodamine B assay
[41] = tested on: IGROV-1; assay: Growth inhibition of human IGROV1 cells after 48 hrs by sulforhodamine B assay; details: IGROV-1, 48 h
[42] = tested on: NCI-H460; assay: Growth inhibition of human NCI-H460 cells after 48 hrs by sulforhodamine B assay; details: NCI-H460, 48 h
[43] = tested on: SN12C; assay: Growth inhibition of human SN12C cells after 48 hrs by sulforhodamine B assay
[44] = tested on: NCI-H322M; assay: Growth inhibition of human NCI-H322M cells after 48 hrs by sulforhodamine B assay
[45] = Growth inhibition of human HCC2998 cells after 48 hrs by sulforhodamine B assay; details: HCC 2998, 48 h
[46] = tested on: Paracentrotus lividus; assay: Antimitotic activity in sea urchin fertilized egg assessed as cleavage arrest treated at 8 to 20 mins post-fertilization measured at 2.5 to 5.5 hrs post-fertilization
[47] = tested on: MDA-MB-231; assay: Growth inhibition of human MDA-MB-231 cells after 48 hrs by sulforhodamine B assay; details: MDA-MB-231, 48 h
[48] = tested on: DU-145; assay: Growth inhibition of human DU145 cells after 48 hrs by sulforhodamine B assay; details: DU-145, 48 h
[49] = tested on: KM12; assay: Growth inhibition of human KM12 cells after 48 hrs by sulforhodamine B assay; details: KM12, 48 h
[50] = tested on: A498; assay: Growth inhibition of human A498 cells after 48 hrs by sulforhodamine B assay; details: A498, 48 h
[51] = tested on: HL-60(TB); assay: Growth inhibition of human HL-60(TB) cells after 48 hrs by sulforhodamine B assay; details: HL-60, 48 h
[52] = tested on: NCI-H226; assay: Growth inhibition of human NCI-H226 cells after 48 hrs by sulforhodamine B assay; details: NCI-H226, 48 h
[53] = tested on: PC-3; assay: Growth inhibition of human PC3 cells after 48 hrs by sulforhodamine B assay; details: PC-3, 48 h
[54] = Growth inhibition of human EKVX cells after 48 hrs by sulforhodamine B assay
[55] = tested on: SW-620; assay: Growth inhibition of human SW620 cells after 48 hrs by sulforhodamine B assay; details: SW-620, 48 h
[56] = tested on: M14; assay: Growth inhibition of human M14 cells after 48 hrs by sulforhodamine B assay; details: M14, 48 h
[57] = tested on: HT-29; assay: Growth inhibition of human HT-29 cells after 48 hrs by sulforhodamine B assay; details: HT-29, 48 h
[58] = tested on: OVCAR-3; assay: Growth inhibition of human OVCAR3 cells after 48 hrs by sulforhodamine B assay; details: OVCAR-3, 48 h
[59] = tested on: MDA-MB-435; assay: Growth inhibition of human MDA-MB-435 cells after 48 hrs by sulforhodamine B assay; details: MDA-MB-435, 48 h
[60] = tested on: UACC-62; assay: Growth inhibition of human UACC62 cells after 48 hrs by sulforhodamine B assay; details: UACC-62, 48 h

## COc1ccc(-c2c(-c3cc(OC)c4c(c3)OCCO4)noc2N)cc1
[1]
  GI50: < 10 nM
[2]
  GI50: 15.5 nM
[3]
  GI50: < 10 nM
[4]
  GI50: < 10 nM
[5]
  GI50: < 10 nM
[6]
  GI50: < 10 nM
[7]
  GI50: < 10 nM
[8]
  GI50: < 10 nM
[9]
  GI50: 1.95 nM
[10]
  GI50: 78.7 nM
[11]
  GI50: < 10 nM
[12]
  GI50: 23600 nM
[13]
  GI50: 446 nM
[14]
  GI50: 30 nM
[15]
  GI50: 33.8 nM
[16]
  GI50: < 10 nM
[17]
  GI50: 26.9 nM
[18]
  GI50: 39.8 nM
[19]
  GI50: 28.5 nM
[20]
  GI50: < 10 nM
[21]
  GI50: < 10 nM
[22]
  GI50: 13 nM
[23]
  GI50: < 10 nM
[24]
  GI50: 17 nM
[25]
  GI50: 14.8 nM
[26]
  EC: 0.002 µM
[27]
  GI50: 10.1 nM
[28]
  GI50: < 10 nM
[29]
  GI50: < 10 nM
[30]
  GI50: 27.2 nM
[31]
  EC: 0.1 µM
[32]
  GI50: 15.8 nM
[33]
  GI50: 50.5 nM
[34]
  GI50: 21.5 nM
[35]
  GI50: 57.8 nM
[36]
  GI50: < 10 nM
[37]
  GI50: 12.2 nM
[38]
  GI50: 12.2 nM
[39]
  GI50: 14.5 nM
[40]
  GI50: 11.2 nM
[41]
  GI50: 13.6 nM
[42]
  GI50: < 10 nM
[43]
  GI50: 31.8 nM
[44]
  GI50: 25400 nM
[45]
  GI50: 20.1 nM
[46]
  EC: 0.01 µM
[47]
  GI50: 73.4 nM
[48]
  GI50: 32 nM
[49]
  GI50: < 10 nM
[50]
  GI50: < 10 nM
[51]
  GI50: 10.4 nM
[52]
  GI50: 27.7 nM
[53]
  GI50: 24.8 nM
[54]
  GI50: 35.3 nM
[55]
  GI50: < 10 nM
[56]
  GI50: < 10 nM
[57]
  GI50: < 10 nM
[58]
  GI50: < 10 nM
[59]
  GI50: < 10 nM
[60]
  GI50: < 10 nM
